Tested on: A549 cells expressing SARS-CoV-2 spike protein fusing with A549 cells overexpressing hACE2
Type: cell-based, human

Row | Compound | decrease of cell attachment (cell-cell fusion) | reduction of cell-cell fusion (in words)
1 | Oc1ccc2c(c1)OC[C@]1(O)Cc3cc(O)c(O)cc3[C@H]21 [Brazilin] | 40% | can reduce cell-cell fusion
2 | COc1cc(/C=C/C(=O)CC(=O)/C=C/c2ccc(O)c(OC)c2)ccc1O [Curcumin] | – | can reduce cell-cell fusion
3 | Theaflavine-3′3-digallate | – | can reduce cell-cell fusion
